Activity data for five compounds are collected here from ChEMBL document CHEMBL1150414, “Synthesis, nano-scale assembly, and in vivo anti-thrombotic activity of novel short peptides containing L-Arg and L-Asp or L-Glu” (2008).

Structures are written as SMILES. “And” between values parts separate entries of the source, which are not always exact repeats. Equal values may be shown once. Starred links: 1 amine or outer side, 2 acyl side, 3 side chain; linkers in the order of their positions; H or OH if unused. Non-standard residues stand in square brackets, D forms with d. Residues, ends and D or L forms follow the SMILES beside them. Groups on a side chain read outwards from the residue. βAsp = O=C(O)[C@H](CC(=O)[*:2])N[*:1]

The test system of assay [1] is Rattus norvegicus. The assay can be described thus: Antithrombotic activity in iv dosed Wistar rat assessed as reduction of thrombus weight. The format is functional, organism-based.
Assay [2] relates to Rattus norvegicus. Nature of the assay: Antithrombotic activity in Wistar rat assessed as thrombus weight at 5 umol/kg, po. It is filed as functional.
For assay [3], the system named is Rattus norvegicus. The assay can be described thus: Antithrombotic activity in Wistar rat assessed as reduction of thrombus weight at 5 umol/kg, iv. It is filed as functional.
The subject of assay [4] is Rattus norvegicus. Nature of the assay: Antithrombotic activity in Wistar rat assessed as thrombus weight at 20 mg/kg, po. It is filed as functional.

`N=C(N)NCCC[C@H](NC(=O)CC[C@H](N)C(=O)N[C@@H](CCCNC(=N)N)C(=O)N[C@@H](CC(=O)O)C(=O)O)C(=O)N[C@@H](CC(=O)O)C(=O)O` (H-Glu([Arg-Asp])-Arg-Asp-OH): the Activity entry in assay [1] was “Dose-dependent effect”.

Take `N=C(N)NCCC[C@H](NC(=O)C[C@H](NC(=O)C[C@H](N)C(=O)N[C@@H](CC(=O)N[C@@H](CCCNC(=N)N)C(=O)O)C(=O)O)C(=O)O)C(=O)O` (H-Asp([βAsp-Arg])-[βAsp]-Arg-OH): the Activity result in assay [1] was “Dose-dependent effect”; in assay [2], 23.2 mg.

Take `N=C(N)NCCC[C@H](NC(=O)C[C@H](N)C(=O)N[C@@H](CCCNC(=N)N)C(=O)N[C@@H](CC(=O)O)C(=O)O)C(=O)N[C@@H](CC(=O)O)C(=O)O` (H-Asp([Arg-Asp])-Arg-Asp-OH): the Activity in assay [3] is 25.12 mg and 15%.

As for `CC(=O)Oc1ccccc1C(=O)O` [ASPIRIN], the Activity in assay [4] was found to be 8.5 mg.

For `N=C(N)NCCC[C@H](NC(=O)C[C@H](NC(=O)CC[C@H](N)C(=O)N[C@@H](CC(=O)O)C(=O)N[C@@H](CCCNC(=N)N)C(=O)O)C(=O)O)C(=O)O` (H-Glu([βAsp-Arg])-Asp-Arg-OH), in assay [1], the Activity result was “Dose-dependent effect”.
